Our source for the IC50 values is patent publication US10143695B2 (priority 2016, dated 2018).

What all share (type): cell-based
The test system of test [1] is SKBR3 cells (HER2 expressing cells). Put plainly: CellTiter-Glo cell viability assay, SKBR3. As to conditions: Homo sapiens, SK-BR-3; PBD compounds, 72 h incubation. As for the experimental part:
(§1) PBD compounds and conjugates thereof were evaluated for their antiproliferation properties in tumor cell lines in vitro using CellTiter-Glo® (Promega Corp). Cells were plated in black walled 96-well plate and allowed to adhere overnight at 37° C. in a humidified atmosphere of 5% CO2. BT474, SKBR3, NCI-N87 cells (HER2 expressing cells), JIMT1 cells (HER2 medium expression level cells) and MCF7 cells (HER2 low expressing levels cells) and were plated at a density of 5,000 cells per well. The next day the medium was replaced with 50 μL fresh medium and 50 μL of 2× stocks of PBD compounds or antibody-PBD conjugate were added to appropriate wells, mixed and incubated for 72 h. CellTiter-Glo® reagent was added to the wells at room temperature and the luminescent signal was measured after 10 min using a SpectraMax M5 plate reader (Molecular Devices). Dose response curves were generated using SoftMax Pro software. IC50 values were determined from four-parameter curve fitting.
(In general: In ATP-based viability assays light output follows the ATP content of the culture.)

In test [2] the test system is MCF7 cells (HER2 low expressing levels cells). Put plainly: CellTiter-Glo cell viability assay, MCF7. As to conditions: Homo sapiens, MCF7; PBD compounds, 72 h incubation. How it is done: as §1
Test [3] concerns JIMT1 cells (HER2 medium expression level cells). Put plainly: CellTiter-Glo cell viability assay, JIMT1. Conditions: Homo sapiens, JIMT-1; PBD compounds, 72 h incubation. As for the experimental part: as §1
The subject of test [4] is BT474 cells (HER2 expressing cells). Put plainly: CellTiter-Glo cell viability assay, BT474. Conditions: Homo sapiens, BT-474; PBD compounds, 72 h incubation. As for the experimental part:
as §1

Test [5] relates to NCI-N87 cells (HER2 expressing cells). Put plainly: CellTiter-Glo cell viability assay, NCI-N87. As to conditions: Homo sapiens, NCI-N87; PBD compounds, 72 h incubation. How it is done:
as §1

On to `C=C1C[C@H]2C=Nc3cc(OCCCC(=O)Nc4cn(C)c(C(=O)Nc5cc(C(=O)Nc6cc(C(=O)n7ccc8cc(C(=O)OC)cnc87)n(C)c6)n(C)c5)n4)c(OC)cc3C(=O)N2C1` [Compound 85, (S,Z)-methyl 1-(4-(4-(4-(4-(7-methoxy-2-methylene-5-oxo-2,3,5,11a-tetrahydro-1H-benzo[e]pyrrolo[1,2-a][1,4]diazepin-8-yloxy)butanamido)-1-methyl-1H-imidazole-2-carboxamido)-1-methyl-1H-pyrrole-2-carboxamido)-1-methyl-1H-pyrrole-2-carbonyl)-1H-pyrrolo[2,3-b]pyridine-5-carboxylate], for which the IC50 (in general, the midpoint of a concentration-inhibition curve) in test [1] came to 0.58 nM; in test [2], 8 nM; in test [3], 14.2 nM; in test [4], 6.3 nM; in test [5] it was 0.97 nM.

In the case of `C=C1CC2C=Nc3cc(OCCCC(=O)Nc4cn(C)c(C(=O)Nc5cc(C(=O)Nc6cc(C(=O)NCCCO)n(C)c6)n(C)c5)n4)c(OC)cc3C(=O)N2C1` (stereo in doubt) [Compound 56, (S,Z)-N-(5-(5-(3-hydroxypropylcarbamoyl)-1-methyl-1H-pyrrol-3-ylcarbamoyl)-1-methyl-1H-pyrrol-3-yl)-4-(4-(7-methoxy-2-methylene-5-oxo-2,3,5,11a-tetrahydro-1H-benzo[e]pyrrolo[1,2-a][1,4]diazepin-8-yloxy)butanamido)-1-methyl-1H-imidazole-2-carboxamide], the half-maximal inhibitory concentration (IC50) in test [1] is 7.9 nM; in test [2], 54.5 nM; in test [3], 9 nM; in test [4] it was 23.3 nM; in test [5] it was 13.6 nM.

Turning to `C=C1C[C@H]2C=Nc3cc(OCCCC(=O)Nc4cn(C)c(C(=O)Nc5cc(C(=O)Nc6cc(C(=O)n7ncc8cc(N)ccc87)n(C)c6)n(C)c5)n4)c(OC)cc3C(=O)N2C1` [Compound 79, (S,Z)-N-(5-(5-(5-amino-1H-indazole-1-carbonyl)-1-methyl-1H-pyrrol-3-ylcarbamoyl)-1-methyl-1H-pyrrol-3-yl)-4-(4-(7-methoxy-2-methylene-5-oxo-2,3,5,11a-tetrahydro-1H-benzo[e]pyrrolo[1,2-a][1,4]diazepin-8-yloxy)butanamido)-1-methyl-1H-imidazole-2-carboxamide], the IC50 in test [1] came to 0.09 nM; in test [2], 2.6 nM; in test [3], 2.1 nM; in test [4], 0.66 nM; in test [5], 0.31 nM.

`C=C1C[C@H]2C=Nc3cc(OCCCC(=O)Nc4cn(C)c(C(=O)Nc5cc(C(=O)Nc6cc(C(=O)n7ccc8cc(S(C)(=O)=O)ccc87)n(C)c6)n(C)c5)n4)c(OC)cc3C(=O)N2C1` [Compound 20, (S,Z)-4-(4-(7-methoxy-2-methylene-5-oxo-2,3,5,11a-tetrahydro-1H-benzo[e]pyrrolo[1,2-a][1,4]diazepin-8-yloxy)butanamido)-1-methyl-N-(1-methyl-5-(1-methyl-5-(5-(methylsulfonyl)-1H-indole-1-carbonyl)-1H-pyrrol-3-ylcarbamoyl)-1H-pyrrol-3-yl)-1H-imidazole-2-carboxamide]: the IC50 in test [1] was 5.5 nM; in test [2] it was 202 nM; in test [3] it was 19.9 nM; in test [4], 126 nM; in test [5] it was 26 nM.

Take `C=C1C[C@H]2C=Nc3cc(OCCCC(=O)Nc4cn(C)c(C(=O)Nc5cc(C(=O)n6ccc7cc(N)ccc76)n(C)c5)n4)c(OC)cc3C(=O)N2C1` [Compound 12, (S,Z)-N-(5-(5-amino-1H-indole-1-carbonyl)-1-methyl-1H-pyrrol-3-yl)-4-(4-((7-methoxy-2-methylene-5-oxo-2,3,5,11a-tetrahydro-1H-benzo[e]pyrrolo[1,2-a][1,4]diazepin-8-yl)oxy)butanamido)-1-methyl-1H-imidazole-2-carboxamide]: the IC50 in test [1] was 0.4 nM; in test [2], 13.9 nM; in test [3] it was 4.4 nM; in test [4], 2 nM; in test [5], 7 nM.

Consider `C=C1C[C@H]2C=Nc3cc(OCCCC(=O)Nc4cn(C)c(C(=O)Nc5cc(C(=O)N6Cc7ccc(N)cc7C6)n(C)c5)n4)c(OC)cc3C(=O)N2C1` [Compound 5A, (S,Z)-N-(5-(5-aminoisoindoline-2-carbonyl)-1-methyl-1H-pyrrol-3-yl)-4-(4-(7-methoxy-2-methylene-5-oxo-2,3,5,11a-tetrahydro-1H-benzo[e]pyrrolo[1,2-a][1,4]diazepin-8-yloxy)butanamido)-1-methyl-1H-imidazole-2-carboxamide], for which the concentration for half-maximal inhibition (IC50) in test [1] was determined as 0.97 nM; in test [2] it was 24.2 nM; in test [3], 16 nM; in test [4], 2.9 nM; in test [5], 5.3 nM.

For the compound `COc1cc2c(cc1OCCCC(=O)Nc1cn(C)c(C(=O)Nc3cc(C(=O)Nc4cc(C(=O)n5ccc6cc(N)ccc65)n(C)c4)n(C)c3)n1)N=C[C@@H]1Cc3ccccc3N1C2=O` [Compound 78, (S)-N-(5-((5-(5-amino-1H-indole-1-carbonyl)-1-methyl-1H-pyrrol-3-yl)carbamoyl)-1-methyl-1H-pyrrol-3-yl)-4-(4-((8-methoxy-6-oxo-12a,13-dihydro-6H-benzo[5,6][1,4]diazepino[1,2-a]indol-9-yl)oxy)butanamido)-1-methyl-1H-imidazole-2-carboxamide], the IC50 in test [1] amounted to 0.06 nM; in test [2] it was 1.9 nM; in test [3], 1.1 nM; in test [4], 0.63 nM; in test [5], 0.29 nM.

In the case of `C=C1C[C@H]2C=Nc3cc(OCCCC(=O)Nc4cn(C)c(C(=O)Nc5cc(C(=O)Nc6cc(C(=O)n7ncc8ccc(N)cc87)n(C)c6)n(C)c5)n4)c(OC)cc3C(=O)N2C1` [Compound 28, (S,Z)-N-(5-(5-(6-amino-1H-indazole-1-carbonyl)-1-methyl-1H-pyrrol-3-ylcarbamoyl)-1-methyl-1H-pyrrol-3-yl)-4-(4-(7-methoxy-2-methylene-5-oxo-2,3,5,11a-tetrahydro-1H-benzo[e]pyrrolo[1,2-a][1,4]diazepin-8-yloxy)butanamido)-1-methyl-1H-imidazole-2-carboxamide], the IC50 in test [1] turned out to be 0.16 nM; in test [2], 2.6 nM; in test [3], 0.6 nM; in test [4], 2.9 nM; in test [5] it was 1.02 nM.

As to `C=C1C[C@H]2C=Nc3cc(OCCCC(=O)Nc4cn(C)c(C(=O)Nc5cc(C(=O)Nc6cc(C(=O)n7ccc8cc(N)ccc87)n(C)c6)n(C)c5)n4)c(OC)cc3C(=O)N2C1` [Compound 8, (S,Z)-N-(5-((5-(5-amino-1H-indole-1-carbonyl)-1-methyl-1H-pyrrol-3-yl)carbamoyl)-1-methyl-1H-pyrrol-3-yl)-4-(4-((7-methoxy-2-methylene-5-oxo-2,3,5,11a-tetrahydro-1H-benzo[e]pyrrolo[1,2-a][1,4]diazepin-8-yl)oxy)butanamido)-1-methyl-1H-imidazole-2-carboxamide], the IC50 turned out to be 0.15 nM in test [1]; 4 nM in test [2]; 2.2 nM in test [3]; 0.84 nM in test [4]; 0.43 nM in test [5].

On to `COc1cc2c(cc1OCCCC(=O)Nc1cc(C(=O)Nc3cc(C(=O)Nc4cc(C(=O)NCCCO)n(C)c4)n(C)c3)n(C)c1)N=C[C@@H]1CCCN1C2=O` [Compound 66, (S,Z)-N-(3-hydroxypropyl)-4-(4-(4-(4-(7-methoxy-5-oxo-2,3,5,11a-tetrahydro-1H-benzo[e]pyrrolo[1,2-a][1,4]diazepin-8-yloxy)butanamido)-1-methyl-1H-pyrrole-2-carboxamido)-1-methyl-1H-pyrrole-2-carboxamido)-1-methyl-1H-pyrrole-2-carboxamide], for which the IC50 is 16 nM in test [1]; 121 nM in test [2]; 15 nM in test [3]; 86 nM in test [4]; 27 nM in test [5].

Take `C=C1C[C@H]2C=Nc3cc(OCCCC(=O)Nc4cn(C)c(C(=O)Nc5cc(C(=O)Nc6cnc7[nH]ccc7c6)n(C)c5)n4)c(OC)cc3C(=O)N2C1` [Compound 84, (S,Z)-N-(5-(1H-pyrrolo[2,3-b]pyridin-5-ylcarbamoyl)-1-methyl-1H-pyrrol-3-yl)-4-(4-(7-methoxy-2-methylene-5-oxo-2,3,5,11a-tetrahydro-1H-benzo[e]pyrrolo[1,2-a][1,4]diazepin-8-yloxy)butanamido)-1-methyl-1H-imidazole-2-carboxamide]: the IC50 was 0.66 nM in test [1]; 3.8 nM in test [2]; 3.6 nM in test [3]; 5.4 nM in test [4]; 1.5 nM in test [5].

In the case of `C=C1C[C@H]2C=Nc3cc(OCCCC(=O)Nc4cn(C)c(C(=O)Nc5cc(C(=O)Nc6cc(C(=O)n7ccc8cc(SC)ccc87)n(C)c6)n(C)c5)n4)c(OC)cc3C(=O)N2C1` [Compound 19, (S,Z)-4-(4-(7-methoxy-2-methylene-5-oxo-2,3,5,11a-tetrahydro-1H-benzo[e]pyrrolo[1,2-a][1,4]diazepin-8-yloxy)butanamido)-1-methyl-N-(1-methyl-5-(1-methyl-5-(5-(methylthio)-1H-indole-1-carbonyl)-1H-pyrrol-3-ylcarbamoyl)-1H-pyrrol-3-yl)-1H-imidazole-2-carboxamide], the IC50 came to 0.2 nM in test [1]; 2.1 nM in test [2]; 1.34 nM in test [3]; 0.59 nM in test [4]; 0.35 nM in test [5].
